Structures are written as SMILES. A value given as a limit tells only on which side of the number the result lay.

The assay concerns the target T1, recombinant human liver glycogen phosphorylase (HLGPa) (Homo sapiens, UniProt P06737).
T1 construct: made in house; host or cells: Sf9 insect cells (unpurified cell lysate used as enzyme solution)
T1 sequence (P06737 1-847): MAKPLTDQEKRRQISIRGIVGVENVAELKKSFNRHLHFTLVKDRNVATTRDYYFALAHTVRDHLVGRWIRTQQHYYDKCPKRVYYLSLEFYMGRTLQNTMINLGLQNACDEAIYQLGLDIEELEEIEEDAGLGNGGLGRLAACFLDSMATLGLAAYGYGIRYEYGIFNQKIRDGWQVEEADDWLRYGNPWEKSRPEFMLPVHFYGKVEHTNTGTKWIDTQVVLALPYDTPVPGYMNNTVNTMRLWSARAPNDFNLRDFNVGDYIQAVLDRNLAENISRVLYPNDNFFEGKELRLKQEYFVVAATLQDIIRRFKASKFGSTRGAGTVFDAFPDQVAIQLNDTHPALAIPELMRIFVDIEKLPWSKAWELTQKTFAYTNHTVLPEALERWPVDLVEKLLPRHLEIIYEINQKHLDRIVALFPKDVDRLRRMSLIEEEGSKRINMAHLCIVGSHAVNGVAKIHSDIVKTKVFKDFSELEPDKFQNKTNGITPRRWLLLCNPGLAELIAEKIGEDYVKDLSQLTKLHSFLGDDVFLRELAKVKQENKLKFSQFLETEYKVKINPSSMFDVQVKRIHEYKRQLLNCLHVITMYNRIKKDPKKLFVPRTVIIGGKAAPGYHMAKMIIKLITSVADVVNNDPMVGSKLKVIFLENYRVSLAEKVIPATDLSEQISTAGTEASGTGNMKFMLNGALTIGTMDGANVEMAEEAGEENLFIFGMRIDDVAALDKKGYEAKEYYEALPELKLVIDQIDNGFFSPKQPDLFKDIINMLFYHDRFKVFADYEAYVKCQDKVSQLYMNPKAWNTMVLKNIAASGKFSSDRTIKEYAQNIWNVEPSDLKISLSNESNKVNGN
Nature of the assay: Measurement of liver glycogen phosphorylase activity (enzyme inhibitory activity against HLGPa). The class given is biochemical. The following applies: Sf9 cell lysate expressing recombinant enzyme; reverse reaction (glycogen synthesis from G1-P), phosphate by malachite green, 60 min room temperature. The method, then:
Measurement Method of Liver Glycogen Phosphorylase Activity
The measurement of the glycogen phosphorylase activity was performed by measuring the concentration of phosphoric acic produced by a reverse reaction, that is, a reaction wherein the glycogen phosphorylase synthesizes glycogen from G1-P. A cell lysate of Sf9 cells that forcibly expressed recombinant human liver glycogen phosphorylase was diluted to a protein amount of 80 μg/mL with 1 mM imidazole-hydrochloric acid buffer (pH 7.0, containing 0.2 mM PMSF, 250 mM NaCl, 0.025% BSA) and the dilute cell lysate was used as an enzyme solution of human liver glycogen phosphorylase. As a substrate solution, 25 mM Tris-HCl buffer (pH 7.2, containing 250 mM KCl, 6.25 mM MgCl2, 6.25 mM EGTA, 1.25 mM glucose-1-phosphate, 2.5 mg/ml glycogen, 7.5 mM glucose) was used. The test drug was dissolved in 0.5% dimethyl sulfoxide (DMSO). To a mixture of the test drug (10 μl) and the substrate solution (20 μl) was added an enzyme solution (20 μl) to start the enzyme reaction. As a control, 0.5% DMSO was added instead of the test drug. One free of addition of enzyme was used as a blank. The mixture was reacted at room temperature for 60 min, and a malachite green solution (50 μl) was added. The mixture was further reacted at room temperature for 20 min and absorbance at 650 nm was measured. An enzyme solution was added to the blank simultaneously with the malachite green solution and the measurement was done in the same manner. The percent inhibition (%) of the test drug was calculated from ((value of control−value of the test drug)/(value of control−value of blank))×100 (%).
`O=C(Nc1ccccc1C(=O)NNC(=O)c1cc2cc(Cl)ccc2[nH]1)OCc1ccccc1` [Example 1-110, benzyl (2-(2-(5-chloro-1H-indole-2-carbonyl)hydrazinocarbonyl)phenyl)carbamate]: the half-inhibitory concentration (IC50) (commonly the midpoint of a concentration-inhibition curve) came to 0.035 µM.
Then `N=C(NNC(=O)c1cc2cc(Cl)ccc2[nH]1)c1c(F)cccc1F` [Example 6-25, 5-chloro-1H-indole-2-carboxylic acid 2-((2,6-difluorophenyl)-imino-methyl)hydrazide methanesulfonate], with 0.33 µM; and `CC(=O)N[C@H](C(=O)NNC(=O)c1cc2cc(Cl)ccc2[nH]1)c1ccccc1` (stereo in doubt) [Example 5-19, N-(2-(2-(5-chloro-1H-indole-2-carbonyl)hydrazino)-2-oxo-1-phenylethyl)acetamide], with 0.36 µM; and `CC(C(=O)NNC(=O)c1cc2cc(Cl)ccc2[nH]1)c1ccccc1` (stereo not shown) [Example 5-15, 5-chloro-1H-indole-2-carboxylic acid 2-(2-phenylpropanoyl)hydrazide], with 0.063 µM.
The same measure for `O=C(NNC(=O)c1cc2cc(F)ccc2[nH]1)c1ccccc1` [Example 1-9, benzoic acid 2-(5-fluoro-1H-indole-2-carbonyl)hydrazide]: 0.073 µM; for `Nc1cc(F)c(F)cc1C(=O)NNC(=O)c1cc2cc(Cl)ccc2[nH]1` [Example 1-100, 2-amino-4,5-difluorobenzoic acid 2-(5-chloro-1H-indole-2-carbonyl)hydrazide]: 0.24 µM; for `O=C(NNC(=O)c1cc2cc(Cl)ccc2[nH]1)Nc1cccc(F)c1` [Example 5-6, 5-chloro-1H-indole-2-carboxylic acid 2-((3-fluorophenyl)aminocarbonyl)hydrazide]: 0.049 µM.
Then `Cc1ccc2[nH]c(C(=O)NNC(=O)c3ccsc3)cc2c1` [Example 1-107, thiophene-3-carboxylic acid 2-(5-methyl-1H-indole-2-carbonyl)hydrazide], with 0.054 µM; and `O=C(NNC(=O)c1cc(F)c(F)c(F)c1F)c1cc2cc(Cl)ccc2[nH]1` [Example 1-94, 2,3,4,5-tetrafluorobenzoic acid 2-(5-chloro-1H-indole-2-carbonyl)hydrazide], with 0.52 µM; and `O=C(NNC(=O)c1sccc1Cl)c1cc2cc(Cl)ccc2[nH]1` [Example 1-86, 3-chlorothiophene-2-carboxylic acid 2-(5-chloro-1H-indole-2-carbonyl)hydrazide], with 0.028 µM.
For `O=C(NNC(=O)c1cc2cc(Cl)ccc2[nH]1)c1ccoc1` [Example 1-84, furan-3-carboxylic acid 2-(5-chloro-1H-indole-2-carbonyl)hydrazide], the IC50 came out at 0.02 µM.
As for `Nc1ccsc1C(=O)NNC(=O)c1cc2cc(Cl)ccc2[nH]1` [Example 1-101, 3-aminothiophene-2-carboxylic acid 2-(5-chloro-1H-indole-2-carbonyl)hydrazide], the IC50 was determined as 0.035 µM.
The same measure for `O=C(NN1C(=O)CNC1=O)c1cc2cc(Cl)ccc2[nH]1` [Example 4-11, 5-chloro-1H-indole-2-carboxylic acid (2,4-dioxoimidazolidin-3-yl)amide]: over 0.1 µM; for `COC(=O)Nc1ccccc1C(=O)NNC(=O)c1cc2cc(F)ccc2[nH]1` [Example 1-105, methyl (2-(2-(5-fluoro-1H-indole-2-carbonyl)hydrazinocarbonyl)phenyl)carbamate]: 0.087 µM; for `O=C(O)CNc1ccccc1C(=O)NNC(=O)c1cc2cc(Cl)ccc2[nH]1` [Example 1-61, 2-(2-(2-(5-chloro-1H-indole-2-carbonyl)hydrazinocarbonyl)anilino)acetic acid]: 0.049 µM.
Regarding `O=C(NNC(=O)c1cc2cc(Cl)ccc2[nH]1)c1ccc(-c2ncn[nH]2)cc1` [Example 1-73, 4-(2H-[1,2,4]triazol-3-yl)benzoic acid 2-(5-chloro-1H-indole-2-carbonyl)hydrazide], the IC50 was 0.076 µM.

The values are drawn from US20050054696A1, “Indole compounds and medicinal use thereof” (priority 2001, published 2005).
